Reference: BigSolDB 2.1

OCc1cn(Cc2ccccc2)nn1
solubility (mole fraction)
Conditions	292.15 K	295.15 K	298.15 K	301.15 K	304.15 K	307.15 K	310.15 K
in ethanol	0.0566	0.0681	0.0833	0.103	0.129	0.158	0.198
in isopropanol	0.0322	0.039	0.047	0.0576	0.0707	0.0889	0.112
in methanol	0.122	0.146	0.172	0.2	0.222	0.262	0.3
in n-butanol	0.0342	0.0408	0.0481	0.0579	0.0695	0.0832	0.1
in n-propanol	0.0422	0.0502	0.0607	0.0742	0.0909	0.113	0.141
in water	0.00147	0.0017	0.00197	0.00237	0.0029	0.00356	0.00433
